Each structure is given as a SMILES string. The source made the active and inactive calls. The calls are words filed in the database; no cut-off is given here.

The subject of assay [1] is Nucleic Acid. Kind of assay: Compound was tested for the induction of DNA strand breaks at concentrations of 0.1 and 0.5 uM; Active. Format: nucleic-acid assay.
The test system of assay [2] is Ovarian cancer cell line. Put plainly: Clonogenic survival activity against human ovarian cancer cells (2008, C13*) cells; 0.01-10 range. Format: functional, cell-based.
The nature of assay [3]: Concentration required for complete inhibition of relaxation of supercoiled plasmid (form I) at concentrations. Format: functional.

The IC50 is the point on the concentration scale where inhibition reaches its midpoint. Read a low IC50 as higher potency. As to `CNC(=S)N(C)CCNc1c2ccccc2nc2ccccc12`, the outcome in assay [1] was Active. Also, in assay [2], the IC50 was found to be 10 nM. Also, the Inhibition concentration in assay [3] was over 25 µM.

These data come from ChEMBL document CHEMBL1134912, “Cytotoxic acridinylthiourea and its platinum conjugate produce enzyme-mediated DNA strand breaks” (Bioorg Med Chem Lett, 2002).
